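Grown in 96-well plates, cells were treated for 48 hours with each compound at five concentrations. Insufficient inhibition: endpoint recorded as highest concentration tested. Abbreviation: GI50, concentration required for 50% inhibition of growth. TGI: total growth inhibition.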
How the values were obtained:
Assay in all cases: NCI-60 cell line screen, 48 h
HCC-2998 colon = test system: HCC-2998 colon
ACHN renal = test system: ACHN renal
M14 melanoma = test system: M14 melanoma
SN12C renal = test system: SN12C renal
UO-31 renal = test system: UO-31 renal
PC-3 prostate = test system: PC-3 prostate
NCI-H522 lung = test system: NCI-H522 lung
OVCAR-8 ovarian = test system: OVCAR-8 ovarian
SF-295 CNS = test system: SF-295 CNS
SK-MEL-2 melanoma = test system: SK-MEL-2 melanoma
A498 renal = test system: A498 renal
KM12 colon = test system: KM12 colon
MALME-3M melanoma = test system: MALME-3M melanoma
A549 NSCLC = test system: A549 NSCLC
NCI-H23 lung = test system: NCI-H23 lung
SK-MEL-5 melanoma = test system: SK-MEL-5 melanoma
MDA-MB-435 = test system: MDA-MB-435
OVCAR-4 ovarian = test system: OVCAR-4 ovarian
EKVX NSCLC = test system: EKVX NSCLC
SF-268 CNS = test system: SF-268 CNS
HCT-116 colon = test system: HCT-116 colon
MDA-MB-231 breast = test system: MDA-MB-231 breast
DU-145 prostate = test system: DU-145 prostate
786-0 renal = test system: 786-0 renal
IGROV1 ovarian = test system: IGROV1 ovarian
LOX IMVI melanoma = test system: LOX IMVI melanoma
HCT-15 colon = test system: HCT-15 colon
CCRF-CEM leukemia = test system: CCRF-CEM leukemia
SR leukemia = test system: SR leukemia
OVCAR-3 ovarian = test system: OVCAR-3 ovarian
HOP-62 NSCLC = test system: HOP-62 NSCLC
MOLT-4 leukemia = test system: MOLT-4 leukemia
T-47D breast = test system: T-47D breast
OVCAR-5 ovarian = test system: OVCAR-5 ovarian
NCI-H460 lung = test system: NCI-H460 lung
NCI/ADR-RES ovarian = test system: NCI/ADR-RES ovarian
NCI-H226 lung = test system: NCI-H226 lung
SF-539 CNS = test system: SF-539 CNS
COLO 205 colon = test system: COLO 205 colon
CAKI-1 renal = test system: CAKI-1 renal
SNB-19 CNS = test system: SNB-19 CNS
U251 CNS = test system: U251 CNS
HOP-92 NSCLC = test system: HOP-92 NSCLC
SK-OV-3 ovarian = test system: SK-OV-3 ovarian
SK-MEL-28 melanoma = test system: SK-MEL-28 melanoma
HT29 colon = test system: HT29 colon
BT-549 breast = test system: BT-549 breast
MCF7 breast = test system: MCF7 breast
SNB-75 CNS = test system: SNB-75 CNS
HS 578T breast = test system: HS 578T breast
UACC-62 melanoma = test system: UACC-62 melanoma
RPMI-8226 leukemia = test system: RPMI-8226 leukemia
RXF 393 renal = test system: RXF 393 renal
SW-620 colon = test system: SW-620 colon
UACC-257 melanoma = test system: UACC-257 melanoma
K-562 leukemia = test system: K-562 leukemia

## COc1cc(Nc2ncccc2C(=O)Nc2nc3ccc(F)cc3s2)cc(OC)c1OC
HCC-2998 colon
  GI50: 2.93 µM
  TGI: 6.96 µM
ACHN renal
  GI50: 4.82 µM
  TGI: > 100 µM
M14 melanoma
  GI50: 3.08 µM
  TGI: > 100 µM
SN12C renal
  GI50: 4.73 µM
  TGI: > 100 µM
UO-31 renal
  GI50: 3.37 µM
  TGI: > 100 µM
PC-3 prostate
  GI50: 2.73 µM
  TGI: > 100 µM
NCI-H522 lung
  GI50: 1.54 µM
  TGI: 5.1 µM
OVCAR-8 ovarian
  GI50: 3.62 µM
  TGI: > 100 µM
SF-295 CNS
  GI50: 2.55 µM
  TGI: > 100 µM
SK-MEL-2 melanoma
  GI50: 2.34 µM
  TGI: 8.04 µM
A498 renal
  GI50: 3.45 µM
  TGI: > 100 µM
KM12 colon
  GI50: 3.79 µM
  TGI: > 100 µM
MALME-3M melanoma
  GI50: 3.27 µM
  TGI: > 100 µM
A549 NSCLC
  GI50: 3.11 µM
  TGI: > 100 µM
NCI-H23 lung
  GI50: 2.27 µM
  TGI: > 100 µM
SK-MEL-5 melanoma
  GI50: 1.63 µM
  TGI: 5.14 µM
MDA-MB-435
  GI50: 2.87 µM
  TGI: > 100 µM
OVCAR-4 ovarian
  GI50: 2.73 µM
  TGI: > 100 µM
EKVX NSCLC
  GI50: 2.7 µM
  TGI: > 100 µM
SF-268 CNS
  GI50: 6.56 µM
  TGI: > 100 µM
HCT-116 colon
  GI50: 3.49 µM
  TGI: > 100 µM
MDA-MB-231 breast
  GI50: 4.61 µM
  TGI: > 100 µM
DU-145 prostate
  GI50: 5.5 µM
  TGI: > 100 µM
786-0 renal
  GI50: 5.51 µM
  TGI: > 100 µM
IGROV1 ovarian
  GI50: 1.77 µM
  TGI: 6.89 µM
LOX IMVI melanoma
  GI50: 3.87 µM
  TGI: > 100 µM
HCT-15 colon
  GI50: 4.38 µM
  TGI: > 100 µM
CCRF-CEM leukemia
  GI50: 3.26 µM
  TGI: > 100 µM
SR leukemia
  GI50: 2.97 µM
  TGI: > 100 µM
OVCAR-3 ovarian
  GI50: 2.77 µM
  TGI: 33 µM
HOP-62 NSCLC
  GI50: 5.78 µM
  TGI: > 100 µM
MOLT-4 leukemia
  GI50: 2.11 µM
  TGI: 5.85 µM
T-47D breast
  GI50: 2.3 µM
  TGI: 7.86 µM
OVCAR-5 ovarian
  GI50: 25.6 µM
  TGI: > 100 µM
NCI-H460 lung
  GI50: 3.3 µM
  TGI: > 100 µM
NCI/ADR-RES ovarian
  GI50: 2.92 µM
  TGI: > 100 µM
NCI-H226 lung
  GI50: 2.95 µM
  TGI: > 100 µM
SF-539 CNS
  GI50: 3.84 µM
  TGI: > 100 µM
COLO 205 colon
  GI50: 3.04 µM
  TGI: > 100 µM
CAKI-1 renal
  GI50: 3.15 µM
  TGI: > 100 µM
SNB-19 CNS
  GI50: 3.49 µM
  TGI: > 100 µM
U251 CNS
  GI50: 3.01 µM
  TGI: > 100 µM
HOP-92 NSCLC
  GI50: 1.48 µM
  TGI: 5.91 µM
SK-OV-3 ovarian
  GI50: 7.4 µM
  TGI: > 100 µM
SK-MEL-28 melanoma
  GI50: 4.33 µM
  TGI: > 100 µM
HT29 colon
  GI50: 5.15 µM
  TGI: > 100 µM
BT-549 breast
  GI50: 2.63 µM
  TGI: > 100 µM
MCF7 breast
  GI50: 3.23 µM
  TGI: > 100 µM
SNB-75 CNS
  GI50: 4.48 µM
  TGI: > 100 µM

## CCCCCCNCCc1cnc[nH]1
HCC-2998 colon
  TGI: > 100 µM
ACHN renal
  TGI: > 100 µM
M14 melanoma
  TGI: > 100 µM
SN12C renal
  TGI: > 100 µM
UO-31 renal
  TGI: > 100 µM
PC-3 prostate
  TGI: > 100 µM
HS 578T breast
  TGI: > 100 µM
NCI-H522 lung
  TGI: > 100 µM
OVCAR-8 ovarian
  TGI: > 100 µM
SF-295 CNS
  TGI: > 100 µM
SK-MEL-2 melanoma
  TGI: > 100 µM
A498 renal
  TGI: > 100 µM
KM12 colon
  TGI: > 100 µM
MALME-3M melanoma
  TGI: > 100 µM
A549 NSCLC
  TGI: > 100 µM
NCI-H23 lung
  TGI: > 100 µM
SK-MEL-5 melanoma
  TGI: > 100 µM
MDA-MB-435
  TGI: > 100 µM
OVCAR-4 ovarian
  TGI: > 100 µM
EKVX NSCLC
  TGI: > 100 µM
SF-268 CNS
  TGI: > 100 µM
HCT-116 colon
  TGI: > 100 µM
UACC-62 melanoma
  TGI: > 100 µM
MDA-MB-231 breast
  TGI: > 100 µM
RPMI-8226 leukemia
  TGI: > 100 µM
DU-145 prostate
  TGI: > 100 µM
786-0 renal
  TGI: > 100 µM
IGROV1 ovarian
  TGI: > 100 µM
LOX IMVI melanoma
  TGI: > 100 µM
HCT-15 colon
  TGI: > 100 µM
CCRF-CEM leukemia
  TGI: > 100 µM
SR leukemia
  TGI: > 100 µM
OVCAR-3 ovarian
  TGI: > 100 µM
HOP-62 NSCLC
  TGI: > 100 µM
RXF 393 renal
  TGI: > 100 µM
MOLT-4 leukemia
  TGI: > 100 µM
T-47D breast
  TGI: > 100 µM
OVCAR-5 ovarian
  TGI: > 100 µM
NCI-H460 lung
  TGI: > 100 µM
NCI/ADR-RES ovarian
  TGI: > 100 µM
NCI-H226 lung
  TGI: > 100 µM
SF-539 CNS
  TGI: > 100 µM
COLO 205 colon
  TGI: > 100 µM
CAKI-1 renal
  TGI: > 100 µM
SNB-19 CNS
  TGI: > 100 µM
U251 CNS
  TGI: > 100 µM
HOP-92 NSCLC
  TGI: > 100 µM
SK-OV-3 ovarian
  TGI: > 100 µM
SK-MEL-28 melanoma
  TGI: > 100 µM
HT29 colon
  TGI: > 100 µM
SW-620 colon
  TGI: > 100 µM
UACC-257 melanoma
  TGI: > 100 µM
K-562 leukemia
  TGI: > 100 µM
MCF7 breast
  TGI: > 100 µM
SNB-75 CNS
  TGI: > 100 µM
